“Also recorded” adds a separate entry of the source. Peptide text beside a SMILES is read from it.
Experiments:
[1] = target: T1, TRPV3 channels expressed in HEK-293 cells (Homo sapiens, UniProt Q8NET8); assay: Patch-clamp testing of TRPV3 channel activity in transfected HEK-293 cells; type: cell-based
T1 construct: expressed in transfected cells; host or cells: HEK-293 cells, transient transfection
T1 sequence (Q8NET8 1-790): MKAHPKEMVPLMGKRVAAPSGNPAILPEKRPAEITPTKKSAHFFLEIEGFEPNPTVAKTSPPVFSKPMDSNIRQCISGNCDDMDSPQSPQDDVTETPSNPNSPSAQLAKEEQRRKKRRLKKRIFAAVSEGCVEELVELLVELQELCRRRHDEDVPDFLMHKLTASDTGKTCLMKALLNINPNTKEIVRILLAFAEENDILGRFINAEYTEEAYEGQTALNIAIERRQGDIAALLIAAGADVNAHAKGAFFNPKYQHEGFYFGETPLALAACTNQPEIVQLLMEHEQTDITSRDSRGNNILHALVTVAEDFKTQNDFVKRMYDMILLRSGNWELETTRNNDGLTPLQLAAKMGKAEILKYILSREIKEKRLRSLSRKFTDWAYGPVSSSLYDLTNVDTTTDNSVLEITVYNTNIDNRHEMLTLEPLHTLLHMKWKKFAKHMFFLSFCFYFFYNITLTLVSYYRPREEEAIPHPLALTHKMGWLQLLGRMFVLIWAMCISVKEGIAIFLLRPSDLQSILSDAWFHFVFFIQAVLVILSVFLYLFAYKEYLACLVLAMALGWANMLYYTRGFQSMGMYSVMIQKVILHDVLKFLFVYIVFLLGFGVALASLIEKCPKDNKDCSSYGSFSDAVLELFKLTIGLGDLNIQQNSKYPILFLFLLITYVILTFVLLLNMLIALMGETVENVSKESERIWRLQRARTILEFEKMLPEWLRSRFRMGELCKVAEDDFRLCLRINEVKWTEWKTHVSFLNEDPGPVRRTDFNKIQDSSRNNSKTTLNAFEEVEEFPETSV
Description: SOR-C13, SOR-C27 and SOR-N54 were tested using a patch clamp screen to determine whether the peptide had any effect on the channel activity of TRPV3. Ruthenium red, a known antagonist of TRPV3 and 2-Aminoethoxydiphenyl Borate (2-APB) a known activator of TRPV3 were used as controls.
HEK 293 cells were maintained in ϕ30 mm cell culture plate in DMEM media supplemented with 10% fetal bovine serum and penicillin/streptomycin. Cells were grown in a humidified atmosphere of 95% air/5% CO2 at 37° C. in a cell culture incubator.
The cells from 70-90% confluence were prepared for transfection. For transient expression in HEK-293 cells 1 μg plasmid cDNA and pEGFP (in vivo reporter of gene expression) were used.
Recordings were performed at 20˜23° C. Currents were sampled using Digidata 1440A, amplified, and filtered at 2 kHz using Axopatch 200B, then acquired and analyzed using pClamp 10.0 (Molecular Devices, Sunny vales, CA, USA).
The pipette solution and bath solution contained 140 mM CsCl, 4 mM MgCl2, 10 mM EGTA, CsOH pH=7.3 and 130 mM NaCl, 5 mM KCl, 2 mM CaCl2), 1 mM MgCl2, 25 mM HEPES, 30 mM Glucose, pH=7.3, respectively.
Each peptide was diluted in the bath solution to the desired concentration (0.01 μM, 0.03 μM, 0.1 μM, 0.3 μM, 1 μM, 3 μM, or 10 μM), respectively.

HaCaT cells = assay: Wound healing assay in HaCaT cells with SOR-C13 fragments (Example 5); type: cell-based, human; conditions: 24 hours
Description: HaCaT cells were plated at 1.6×10^5 per well in 24-well tissue culture plates in 1 ml of DMEM low glucose medium with 10% FBS. After 3 days, when the cells in each well were ˜100% confluent, a gap at the bottom of each well was generated by scratching with a sterile pipette tip. Supernatant was aspirated and cells were washed gently once with PBS. Fresh media (MEGM Bullet Kit, (Lonza, Cat. #CC-3150) containing bovine pituitary extracts (BPE), hEGF, insulin, and hydrocortisone was added after the wash with peptides. After 24 hours, cells were fixed with 2% paraformaldehyde with 15-minute incubation. Fixed cells were rinsed with PBS. Cells in each well were then examined under the microscope to semi-quantify the gap closure by cell migration. A digital camera fixed to the microscope was used to capture images of cells. The width of gap was measured by a ruler semi-quantitatively on the image. Under visual inspection, the wound healing results were also scored as “−”; “+”; “++”; or “+++” using the same criteria as set out in Example 4.
The effect of the peptides on tissue repair was determined using a wound healing assay that measures the migration of HaCaT cells. Gap size prior to and after treatment was semi-quantified by measuring the size of each gap on a digital photograph of the cells.

CC(C)C[C@H](NC(=O)[C@H](Cc1ccccc1)NC(=O)[C@H](CCC(=O)O)NC(=O)[C@@H](N)CCCCN)C(=O)N[C@@H](Cc1cnc[nH]1)C(=O)N1CCC[C@H]1C(=O)N[C@@H](CO)C(=O)N[C@@H](CCCCN)C(=O)N[C@H](C(=O)N[C@@H](CC(=O)O)C(=O)N[C@@H](CC(C)C)C(=O)N1CCC[C@H]1C(=O)N[C@@H](CCCNC(=N)N)C(=O)O)C(C)C [SOR-C13, KEFLHPSKVDLPR] (H-KEFLHPSKVDLPR-OH)
EC50 [1]: 21.7 nM | wound healing response, gap closure (HaCaT cells; 1000 μM): no response | concentration dependence of wound healing response / gap closure (HaCaT cells; 10, 100 and 1000 μM): lower concentrations of SOR-C13 are more effective than higher concentrations; also recorded: lower concentrations are more effect than higher concentrations | wound healing response, gap closure (HaCaT cells; two lowest concentrations (10 and 100 μM)): very good response
